Literature values in US7333894B2, “Methods for the diagnosis of hemodialysis patients and utilization of such methods to improve the administration of intravenous levocarnitine treatments to hemodialysis patients” (Sigma-Tau Pharmaceuticals, Inc., priority 2002, dated 2008).

Experiments:
[1] = intravenous administration at the end of a dialysis session, ESRD patients
[2] = hemodialysis patient, one dialysis session

SMILES: C[N+](C)(C)C[C@H](O)CC(=O)[O-] [carnitine, levocarnitine]
- time for plasma carnitine levels to return to pre-dialysis baseline levels [1]: 10 to 24 h
- carnitine present in the plasma removed during a dialysis session [2]: more than 70%
